In the supplement of paper PMC10307832:

Assays:
Experiment in all cases: relative viability (nuclei count vs DMSO), 5 days (fraction); higher = more cells survive
AZD5582 + Dasatinib = compound: C[C@@H](C(=O)N[C@@H](C1CCCCC1)C(=O)N2CCC[C@H]2C(=O)N[C@@H]3[C@@H](CC4=CC=CC=C34)OCC#CC#CCO[C@@H]5CC6=CC=CC=C6[C@@H]5NC(=O)[C@@H]7CCCN7C(=O)[C@H](C8CCCCC8)NC(=O)[C@H](C)NC)NC [AZD5582] + Cc1nc(Nc2ncc(C(=O)Nc3c(C)cccc3Cl)s2)cc(N2CCN(CCO)CC2)n1 [Dasatinib] (partner 0.075 µM)
Summary of the method: (§1)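 Relative viability equals treated-well nuclei counts divided by vehicle-well nuclei counts. Counts came from 4× images of lung cancer cell lines grown in 1536-well plates for 5 days after pin-tool dosing on the day after seeding. Dosing used one drug alone or a fixed anchor-drug dose plus five library-drug doses (not always all listed) in √10 steps, and values are medians of duplicate plates.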

[1] = compound: Cn1nnc2c(C(N)=O)ncn2c1=O [Temozolomide] + N=C(N)NC(=N)NCCc1ccccc1 [Phenformin] (partner 250 µM)
Summary of the method: as §1

Temozolomide + Foretinib = compound: Cn1nnc2c(C(N)=O)ncn2c1=O [Temozolomide] + COc1cc2c(Oc3ccc(NC(=O)C4(C(=O)Nc5ccc(F)cc5)CC4)cc3F)ccnc2cc1OCCCN1CCOCC1 [Foretinib] (partner 0.25 µM)
Summary of the method: as §1

AZD5582 + Alpelisib = compound: C[C@@H](C(=O)N[C@@H](C1CCCCC1)C(=O)N2CCC[C@H]2C(=O)N[C@@H]3[C@@H](CC4=CC=CC=C34)OCC#CC#CCO[C@@H]5CC6=CC=CC=C6[C@@H]5NC(=O)[C@@H]7CCCN7C(=O)[C@H](C8CCCCC8)NC(=O)[C@H](C)NC)NC [AZD5582] + Cc1nc(NC(=O)N2CCC[C@H]2C(N)=O)sc1-c1ccnc(C(C)(C)C(F)(F)F)c1 [Alpelisib] (partner 2 µM)
Summary of the method: as §1

Cell Line	relative viability (AZD5582 + Dasatinib; first compound 0.001581 µM)	relative viability (AZD5582 + Dasatinib; first compound 0.005 µM)	relative viability (AZD5582 + Dasatinib; first compound 0.01581 µM)	relative viability (AZD5582 + Dasatinib; first compound 0.05 µM)	relative viability ([1]; first compound 0.2 µM)	relative viability ([1]; first compound 0.6325 µM)	relative viability ([1]; first compound 2 µM)	relative viability ([1]; first compound 6.325 µM)	relative viability ([1]; first compound 20 µM)	relative viability (Temozolomide + Foretinib; first compound 0.2 µM)	relative viability (Temozolomide + Foretinib; first compound 0.6325 µM)	relative viability (Temozolomide + Foretinib; first compound 2 µM)	relative viability (Temozolomide + Foretinib; first compound 6.325 µM)	relative viability (Temozolomide + Foretinib; first compound 20 µM)	relative viability (AZD5582 + Alpelisib; first compound 0.001581 µM)	relative viability (AZD5582 + Alpelisib; first compound 0.005 µM)	relative viability (AZD5582 + Alpelisib; first compound 0.01581 µM)	relative viability (AZD5582 + Alpelisib; first compound 0.05 µM)
201T	0.557	0.577	0.541	0.589	0.491	0.449	0.497	0.376	0.456	0.901	1.2	1.14	1.08	1.03	1.05	1.07	0.977	1.25
A549	–	–	–	–	–	0.161	0.136	0.147	0.177	1.02	0.996	0.998	1.01	0.769	0.713	0.717	0.769	0.835
A-427	0.593	0.638	0.683	0.384	0.314	0.364	0.39	0.246	0.267	0.992	0.981	1.03	0.66	0.486	0.996	1.01	1.04	0.881
ABC-1	0.344	0.611	–	0.632	0.241	0.232	0.24	0.213	0.237	1.06	0.96	1.21	1.07	1.11	1.17	1.15	1.07	1.03
BEN	0.329	0.344	0.289	0.304	0.286	0.288	0.229	0.27	0.26	0.734	0.651	0.803	0.517	0.428	0.884	1.07	1.16	1.27
CAL-12T	0.261	0.333	0.363	0.349	0.657	0.612	0.529	0.574	0.558	1.13	1.09	1.15	1.05	1.13	–	0.713	1.24	1.01
COR-L23	0.432	0.647	0.477	0.53	0.511	0.475	0.437	0.462	0.428	1.12	1.06	1.01	0.961	0.911	0.73	0.801	0.799	0.875
COR-L 105	0.374	0.455	0.278	0.258	0.452	0.603	0.594	0.452	0.305	1.17	1.29	1.18	0.51	1.11	0.961	0.847	0.981	1.49
Calu-6	–	–	–	–	–	–	–	–	–	0.886	0.843	0.941	0.811	0.904	0.822	0.843	1.07	0.734
ChaGo-K-1	0.579	0.669	0.596	0.488	0.595	0.484	0.617	0.413	0.509	0.993	0.886	0.992	0.98	0.975	–	–	–	–
EBC-1	–	–	–	–	–	–	–	–	–	0.11	0.1	0.0982	0.111	0.117	0.754	0.866	0.869	0.857
EKVX	0.502	0.615	–	0.627	0.185	0.232	0.232	0.236	0.216	0.485	0.799	0.748	0.722	0.356	0.868	1.03	0.82	1.08
EMC-BAC-2	0.332	0.327	0.31	0.241	0.604	0.479	0.586	0.458	0.564	0.947	1.07	1.02	0.998	0.973	0.702	0.628	0.721	0.316
EPLC-272H	0.0652	–	0.305	0.0573	0.156	0.305	0.332	0.461	0.28	0.537	0.697	0.628	0.712	0.497	0.635	0.506	0.136	0.217
H3255	0.329	0.404	0.294	0.283	–	0.385	0.344	0.403	0.185	–	0.845	1.03	0.507	0.201	0.596	0.587	0.629	0.498
HARA	0.26	0.299	0.294	0.124	0.446	0.493	0.401	0.414	0.394	0.8	0.991	1.05	0.671	0.641	0.75	0.783	0.866	0.701
HCC-15	0.53	0.617	0.605	0.624	0.502	0.531	0.519	0.418	0.513	1.15	1.04	1.06	0.969	1.1	0.771	0.648	0.922	0.555

Cell Line	relative viability (AZD5582 + Dasatinib; first compound 0.001581 µM)	relative viability (AZD5582 + Dasatinib; first compound 0.005 µM)	relative viability (AZD5582 + Dasatinib; first compound 0.01581 µM)	relative viability (AZD5582 + Dasatinib; first compound 0.05 µM)	relative viability ([1]; first compound 0.2 µM)	relative viability ([1]; first compound 0.6325 µM)	relative viability ([1]; first compound 2 µM)	relative viability ([1]; first compound 6.325 µM)	relative viability ([1]; first compound 20 µM)	relative viability (Temozolomide + Foretinib; first compound 0.2 µM)	relative viability (Temozolomide + Foretinib; first compound 0.6325 µM)	relative viability (Temozolomide + Foretinib; first compound 2 µM)	relative viability (Temozolomide + Foretinib; first compound 6.325 µM)	relative viability (Temozolomide + Foretinib; first compound 20 µM)	relative viability (AZD5582 + Alpelisib; first compound 0.001581 µM)	relative viability (AZD5582 + Alpelisib; first compound 0.005 µM)	relative viability (AZD5582 + Alpelisib; first compound 0.01581 µM)	relative viability (AZD5582 + Alpelisib; first compound 0.05 µM)
HCC-44	–	–	–	–	0.194	0.238	0.17	0.185	0.315	–	–	–	–	–	0.683	0.525	0.738	0.368
HCC-78	0.489	0.392	0.375	0.374	0.701	0.755	0.713	0.656	0.751	0.487	0.547	0.616	0.551	0.552	0.298	0.395	0.307	0.3
HCC-366	0.614	0.658	–	0.647	0.639	0.647	0.631	0.621	0.62	0.941	0.94	0.947	0.932	0.528	0.363	0.625	0.389	0.774
HCC-827	0.342	0.218	0.289	0.411	0.248	0.443	0.397	0.41	0.131	1.14	1.01	0.994	0.894	0.153	0.898	1.02	0.985	1.04
HOP-62	0.657	0.797	0.506	0.689	0.939	0.642	0.818	0.657	0.717	1.33	1.08	1.14	1.1	1.04	0.997	0.934	0.87	1.25
IA-LM	–	–	–	–	–	–	–	–	–	1.35	1.23	1.19	1.03	1.34	0.686	0.71	0.844	0.686
LC-2-ad	0.629	0.774	0.461	0.531	0.609	0.651	0.584	0.601	0.46	0.838	1	0.971	0.898	0.765	0.911	0.98	0.834	1.11
LCLC-97TM1	0.748	0.91	0.768	0.825	0.427	0.487	0.492	0.418	0.412	0.919	0.906	0.86	0.979	0.934	–	0.269	0.226	0.23
LCLC-103H	0.411	0.475	0.403	0.152	0.36	0.365	0.359	0.31	0.322	0.834	0.787	0.895	0.73	0.713	0.97	1.23	0.471	0.64
LK-2	0.209	0.36	0.322	0.266	0.502	0.568	0.455	0.179	0.194	1.25	1.44	1.19	0.742	0.519	1.05	1.15	1.28	1.33
NCI-H522	0.935	0.876	0.846	1.45	0.653	0.664	0.728	0.626	0.629	–	–	–	–	–	–	–	–	–
NCI-H1299	–	–	–	–	–	–	–	–	–	1.15	1.12	1.09	1.1	1.12	1.01	1.11	1.07	1.03
NCI-H1623	0.514	0.582	0.559	0.433	–	0.646	0.521	0.563	0.309	–	0.854	0.827	0.822	0.519	–	–	–	–
NCI-H1650	0.293	0.352	0.341	0.344	0.458	0.468	0.446	0.424	0.311	1.14	1.07	1.02	0.872	0.766	–	–	–	–
NCI-H1792	0.861	0.911	0.819	1.03	0.61	0.352	0.328	0.155	0.271	–	–	–	–	–	0.616	0.738	0.651	0.939
NCI-H2342	0.316	0.315	0.27	0.319	0.57	0.629	0.625	0.662	0.563	0.793	1	1.04	1.02	0.886	–	–	–	–
SW 900	0.482	0.424	0.393	0.653	0.754	0.671	0.556	0.464	0.718	0.924	1.2	0.955	0.732	1.25	–	–	–	–
